We go through six molecules from patent publication US6713512B1, “Uses of kombic acid as an anticancer and cholesterol-lowering agent” (priority 2001, dated 2004).

The test system of one assay is MCF-7 cells. The experiment in a line: Effect of excess estrogen on inhibition in steroid-depleted cells. It is filed as cell-based, human. As to conditions: presence of estradiol. The text has this: The effect of Kombic Acid and its derivatives on the estrogen receptor is investigated. Human cancer cells in culture, such as, but not limited to, MCF-7 cells are depleted of steroids and treated with Kombic Acid, its derivatives, tocotrienols, or tamoxifen (used as a positive control) in the presence or absence of estradiol.

Assay [1] relates to Human low density lipoprotein. The experiment in a line: Copper-induced lipid peroxidation of human low density lipoprotein (MDA/thiobarbituric acid). The class given is biochemical. Conditions: for IC50: 10 μM copper; for antioxidant activity compared with natural vitamin E: result in words. The procedure: Human low density lipoprotein was dialyzed, incubated with or without inhibitor, and then treated with 10 μM copper to induce lipid peroxidation for several hours. The extent of lipid peroxidation was determined by the amount of malondialdehyde produced, which was determined by reaction with thiobarbituric acid as described above.

Assay [2] in a line: Oxygen Stability Index of edible oil. It is filed as physicochemical. As to conditions: for antioxidant effectiveness in edible oil: result in words; for Hours to end-point: 110° C. The procedure: The Oxygen Stability Index is used to measure the effectiveness of antioxidants in the stabilization of edible oils against oxidative degradation. The “Hours to end-point” indicate when a time/conductivity curve changes shape, with a sharp slope upturn at that time point. The temperature of the test, which measures conductivity of a solution into which oxidation products from the oil being tested is passed, is 110° C.

Assay [3] relates to MCF-7 estrogen receptor-positive human breast cancer cells. Briefly: Proliferation of estrogen receptor-positive cells. It is filed as cell-based. Conditions: alone. The procedure:
Human breast cancer cells are incubated in the presence and absence of kombic acid and its derivatives individually. The IC50 (the concentration of Kombic Acid or its derivatives required to inhibit cell proliferation by 50%) is then determined.

The nature of assay [4]: Plasma cholesterol and apoB in humans. It is filed as in vivo. The text has this:
(§1) Hypercholesterolemia associated with elevated LDL (low-density lipoprotein) cholesterol is a risk factor for CHD (coronary heart disease). LDL-cholesterol combined with oxidative stress can contribute to the formation and development of atherosclerotic plaques. To lower the risk of CHD, antioxidants such as Kombic Acid and its derivatives counteract LDL oxidation.

Assay [5] in a line: Cholesterol lowering in animal models. The class given is in vivo.
Text: as §1

The subject of assay [6] is PAP2 (ras-transformed NIH 3T3 mouse fibroblasts) cells. Briefly: Proliferation of PAP2 cells. It is filed as cell-based.
The test system of assay [7] is Ehrlich carcinoma, sarcoma 180, implanted murine carcinoma (IMC) tumors, Meth-A fibrosarcoma. The experiment in a line: Survival of mice bearing tumor cells. Conditions: injected intraperitoneally. The class given is in vivo. The text has this:
Such mice bearing tumor cells include, but are not limited to Ehrlich carcinoma, sarcoma 180, or implanted murine carcinoma (IMC) tumors, Meth-A fibrosarcoma or other tumors.

Assay [8] relates to MDA-MB-435 estrogen receptor-negative human breast cancer cells. The experiment in a line: [3H] thymidine incorporation, estrogen receptor-negative cells. It is filed as cell-based. The procedure: Human cancer cells, such as, but not limited to, MDA-MB-435 estrogen receptor-negative human breast cancer cells are incubated in the presence of varying concentrations of kombic acid or its derivatives. The incorporation of [^3H] thymidine into the DNA of the cells is measured.
For orientation: Incorporation of labelled thymidine or its analogues reports DNA synthesis.

For another assay, the system named is PKC. The experiment in a line: Protein kinase C activity. It is filed as biochemical.
For assay [9], the system named is Rat liver microsomes lipid peroxidation. Briefly: Lipid peroxidation in rat liver microsomes induced by ascorbic acid and ferrous sulfate (MDA/thiobarbituric acid). The class given is biochemical. As to conditions: for IC50: concentration required to inhibit lipid peroxidation by 50%, obtained by plotting. The procedure: Rat liver microsomes, previously incubated with or without inhibitor, were treated with ascorbic acid and ferrous sulfate to induce lipid peroxidation. The extent of lipid peroxidation was determined by the amount of malondialdehyde produced, which was determined by reaction with thiobarbituric acid.
Biological specimens contain a mixture of thiobarbituric acid reactive substances (TBARS), including lipid hydroperoxides and aldehydes, which increase as a result of oxidative stress. TBARS return to normal levels over time, depending upon the presence of antioxidants. In practice, TBARS are expressed in terms of malondialdehyde (MDA) equivalents. In this assay, an MDA standard is used to construct a standard curve against which unknown samples can be plotted. The presence of this compound is measured by fluorometry or spectrophotometry.
(Microsomes from liver hold many membrane-bound enzymes, among them those of drug oxidation.)

For the next assay, the system named is HepG2 cells. The experiment in a line: Medium apoB of LDL-like lipoprotein secreting cells (ELISA). The class given is cell-based. Conditions: nontoxic concentrations, serum-free medium. How it is done:
The apoB-lowering potential of Kombic Acid and its derivatives is evaluated in cells that secrete and catabolize lipoproteins similar to LDL, for example, but not limited to HepG2 cells. Confluent cells are preincubated in serum-free medium, which inhibits cell proliferation and stimulates biosynthesis of LDL-like lipoproteins. They are subsequently incubated in the same medium in the presence or absence of Kombic Acid or its derivatives at the range of nontoxic concentrations. For each compound, the highest nontoxic concentration is predetermined by a viability assay, such as but not limited to the 3-(4,5-dimethylthiazol-2-yl)-2,5-diphenyltetrazolium bromide (MTT) viability assay. At the end of the incubation, changes in medium concentration of apoB B are evaluated by ELISA and compared with changes induced in the absence of kombic acid or its derivatives.

Where [10] appears, read: read-out: IC50: mean +/− Standard Deviation.
The mark [11] stands for this setting: individual determinations, read-out: IC50: data.
Setting [12] is: inhibitor concentration 0.156 μg/mL.
[13] abbreviates: inhibitor concentration 0.313 μg/mL.
[14] abbreviates: inhibitor concentration 0.625 μg/mL.
Where [15] appears, read: inhibitor concentration 0.625 μg/mL, peroxidation (nmoles MDA) with inhibitor divided by without.

Converted amounts (≈) assume the structure as drawn. “And” between values parts separate entries of the source, which are not always exact repeats. Identical values can stand only once. Like-named read-outs stand apart in the source and are kept apart here.

As to tocotrienols, the “reversal of inhibition by excess estrogen” value (“reversal of inhibition” below) with MCF-7 cells is listed as “does not reverse the inhibition”.
Turning to `Cc1c(C)c2c(c(C)c1O)CC[C@@](C)(CCC[C@H](C)CCC[C@H](C)CCCC(C)C)O2` [d-α-tocopherol, reference compound], the IC50 in assay [1] (setting [10]) is 4.6 µM; in [1] (setting [11]), 5.1 µM (2×) and 3.5 µM.
As for `CC/C(=C(\c1ccccc1)c1ccc(OCCN(C)C)cc1)c1ccccc1` [tamoxifen], in the assay with MCF-7 cells, the “reversal of inhibition” value is on record as “does reverse the inhibition”.
Take `CC(C)(C)c1cc(O)ccc1O` [TBHQ, tributyl-tert-hydroquinone, reference compound]: the “antioxidant effectiveness in edible oil” value in [2] is reported as “effective antioxidants”. Also, the Hours to end-point in assay [2] (soybean oil + 200 ppm) was 21.10 h and 19.85 h.
As to `CC(=CCCC(C)=CCc1cc(O)cc(C)c1O)CCC=C(C)CCC=C(C)C(=O)O` [Kombic Acid, 16(2′,5′-dihydroxy-3′-methylphenyl)-2,6,10,14-tetramethyl-2,6,10,14-hexadecatetraenoic acid], the figures for the cell proliferation result in assay [3] and in assay [6] were “can inhibit the proliferation” and “inhibit the proliferation of these cells”, respectively. Moreover, the IC50 is 5.2 µM in [1] (setting [10]); 7.8 µM and 2.1 µM and 2.2 µM and 8.5 µM and 5.2 µM in [1] (setting [11]); 0.20 µg/mL (≈ 0.469 µM) in assay [9]. The “antioxidant activity compared with natural vitamin E” value in assay [1] is listed as “no significant difference in antioxidant activity”. The “reversal of inhibition” value in the assay with MCF-7 cells is reported as “does not reverse the inhibition”. Further, in assay [4], the “plasma total and LDL cholesterol and apoB” value was “effective in reducing elevated plasma levels of total and LDL cholesterol as well as plasma apolipoprotein B (apoB) concentrations”. In assay [2], the “antioxidant effectiveness in edible oil” value was “effective antioxidants”. The Hours to end-point in [2] (soybean oil + 40 ppm) was 8.35 h and 8.85 h; in assay [2] (soybean oil + 300 ppm) it was 15.55 h and 15.40 h. Besides, the cholesterol-lowering effects result in assay [5] is listed as “produce cholesterol-lowering effects in animal models”. Further, the “life of mice bearing tumor cells” value in [7] was “prolong the life of mice bearing tumor cells”. Moreover, in [8] (alone), the “proliferation ([3H] thymidine incorporation)” value is listed as “inhibit the proliferation of these cells”. Moreover, the interaction with tamoxifen entry in assay [8] (with tamoxifen) is on record as “can act synergistically with tamoxifen”. The PKC activity entry in the assay with PKC is given as “inhibitors of PKC activity”. Further, the % Inhibition – broadly, the share of the control response that was lost under treatment – in [9] (setting [12]) is reported as 36%; in [9] (setting [13]) it was 89%; in [9] (setting [14]) it was 90%. The “Remaining lipid peroxidation (fraction of control)” value is 0.64 in assay [9] (setting [12]), 0.11 in assay [9] (setting [13]) and 0.10 in assay [9] (setting [15]). Besides, the antioxidant activity entry in assay [9] (result in words) was “very strong antioxidant activity”. Also, the “medium apoB” value in the assay on HepG2 cells was “dose-dependent reduction of medium apoB B”.
For `Cc1c(C)c2c(c(C)c1O)CCC(C)(CCCC(C)CCCC(C)CCCC(C)C)O2` (racemic) [dl-α-tocopherol, reference compound], in assay [1], the “antioxidant activity compared with natural vitamin E” value is given as “inhibit peroxidation equally as well as natural (d) vitamin E”. The IC50 in assay [9] came out at 0.31 µg/mL (≈ 0.72 µM). Further, the “% Inhibition” value was 8% in assay [9] (setting [12]), 50% in assay [9] (setting [13]) and 66% in assay [9] (setting [14]). The “Remaining lipid peroxidation (fraction of control)” value in [9] (setting [12]) is recorded as 0.92; in [9] (setting [13]), 0.50; in assay [9] (setting [15]) it was 0.34.
